This is an account of results in ChEMBL document CHEMBL5236635, “Structure-Based Drug Design and Synthesis of Novel N-Aryl-2,4-bithiazole-2-amine CYP1B1-Selective Inhibitors in Overcoming Taxol Resistance in A549 Cells” (J Med Chem, 2022).

Calls of active or inactive are those of the source. No cut-off for these calls is given here.

The IC50 is the concentration that gives 50% inhibition.

For one experiment, the target named is T1, Cytochrome P450 1A1 (Homo sapiens, UniProt P04798).
T1 sequence (P04798 whole entry): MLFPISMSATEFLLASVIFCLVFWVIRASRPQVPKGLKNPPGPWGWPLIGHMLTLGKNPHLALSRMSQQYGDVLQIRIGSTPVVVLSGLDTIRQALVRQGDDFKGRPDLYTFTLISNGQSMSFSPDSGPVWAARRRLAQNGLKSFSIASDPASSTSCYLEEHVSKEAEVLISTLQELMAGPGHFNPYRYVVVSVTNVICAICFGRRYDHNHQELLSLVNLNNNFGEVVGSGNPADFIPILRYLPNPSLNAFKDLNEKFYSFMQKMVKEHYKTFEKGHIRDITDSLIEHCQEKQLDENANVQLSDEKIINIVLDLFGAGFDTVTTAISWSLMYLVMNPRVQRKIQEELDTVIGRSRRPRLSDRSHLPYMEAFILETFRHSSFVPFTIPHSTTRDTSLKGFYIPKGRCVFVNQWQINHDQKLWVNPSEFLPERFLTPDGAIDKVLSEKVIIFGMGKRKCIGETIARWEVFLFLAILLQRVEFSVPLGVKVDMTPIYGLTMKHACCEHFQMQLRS
Kind of experiment: Inhibition of recombinant human CYP1A1 using 7-ethyl-0-resorufin as substrate incubated for 30 mins in presence of NADPH by EROD assay.

For experiment [1], the system named is A549/TR. Kind of experiment: Synergistic antiproliferative activity against human A549/Taxol cells assessed as increase in taxol by measuring combination index at 7.50 uM incubated for 72 hrs in presence of 0.25 uM taxol by MTT assay. Type of experiment: functional. The conditions noted are these: dose 7.5 µM. A general note: Tetrazolium assays rely on reduction of a dye to a coloured formazan, in cell work by metabolically active cells.

Experiment [2] relates to A549/TR. Kind of experiment: Synergistic antiproliferative activity against human A549/Taxol cells assessed as increase in taxol by measuring combination index at 7.50 uM incubated for 72 hrs in presence of 0.50 uM taxol by MTT assay. Type of experiment: functional. Conditions: dose 7.5 µM.
The subject of experiment [3] is A549/TR. Kind of experiment: Synergistic antiproliferative activity against human A549/Taxol cells assessed as increase in taxol by measuring combination index at 15 uM incubated for 72 hrs in presence of 0.50 uM taxol by MTT assay. Type of experiment: functional.
The test system of experiment [4] is A549/TR. The experiment can be described thus: Reversal of taxol resistance in human A549/Taxol cells assessed as increase in Rho123 accumulation at 2.5 to 10 uM incubated for 20 mins by multimode plate reader analysis. Type of experiment: functional, cell-based. Conditions: dose 2.5-10 µM.
Experiment [5] has as its system A549. The experiment can be described thus: Inhibition of DMBA induced taxol resistance in human A549 cells. Type of experiment: functional, cell-based. Conditions: dose 2.5-10 µM.
The next experiment deals with A549/Taxol. The experiment can be described thus: Inhibition of AKT pathway in human A549/Taxol cells assessed as decrease in phosphorylated AKT level at 2.5 to 5 uM incubated for 24 hrs. The format is cell-based. Conditions: dose 2.5-5 µM.
Experiment [6] has as its system A549/TR. Kind of experiment: Synergistic antiproliferative activity against human A549/Taxol cells assessed as increase in taxol by measuring combination index at 15 uM incubated for 72 hrs in presence of 1 uM taxol by MTT assay. The format is functional.
Experiment [7] has as its system A549/TR. Kind of experiment: Synergistic antiproliferative activity against human A549/Taxol cells assessed as increase in taxol by measuring combination index at 3.75 uM incubated for 72 hrs in presence of 0.25 uM taxol by MTT assay. The format is functional.
The subject of experiment [8] is A549/TR. Kind of experiment: Inhibition of cell invasion in human A549/Taxol cells at 2.5 to 10 uM incubated for 18 hrs by optical microscopic analysis. Type of experiment: functional, cell-based. The conditions noted are these: dose 2.5-10 µM.
Experiment [9] has as its system A549/TR. The experiment can be described thus: Upregulation of E-cadherin expression level in human A549/Taxol cells at 2.5 to 10 uM incubated for 24 hrs by densitometry analysis. The format is functional, cell-based. The conditions noted are these: dose 2.5-10 µM.
Experiment [10] concerns A549/TR. Kind of experiment: Synergistic antiproliferative activity against human A549/Taxol cells assessed as increase in taxol by measuring combination index at 15 uM incubated for 72 hrs in presence of 0.25 uM taxol by MTT assay. Type of experiment: functional.
The target in experiment [11] is Proto-oncogene tyrosine-protein kinase Src (Homo sapiens) (UniProt P12931). The experiment can be described thus: Inhibition of SRC pathway in human A549/Taxol cells assessed as decrease in phosphorylated FAK level at 2.5 to 5 uM incubated for 24 hrs. Conditions: dose 2.5-5 µM. Type of experiment: cell-based.
Experiment [12] relates to A549/TR. The experiment can be described thus: Synergistic antiproliferative activity against human A549/Taxol cells assessed as increase in taxol by measuring combination index at 30 uM incubated for 72 hrs in presence of 0.50 uM taxol by MTT assay. Type of experiment: functional.
Experiment [13] has as its system A549. The experiment can be described thus: Upregulation of DMBA-induced CYP1B1 expression level in human A549 cells incubated for 24 hrs. Type of experiment: functional, cell-based. Conditions: dose 1-10 µM.
In experiment [14] the test system is NCI-H460. The experiment can be described thus: Inhibition of DMBA-induced CYP1B1 overexpression in human NCI-H460 cells assessed as effect on Snail level at 5 uM incubated for 24 hrs by densitometry analysis. Type of experiment: functional, cell-based.
The subject of experiment [15] is NCI-H460. Kind of experiment: Inhibition of DMBA-induced CYP1B1 overexpression in human NCI-H460 cells assessed as increase in Vimentin level incubated for 24 hrs by densitometry analysis. Type of experiment: functional, cell-based. The conditions noted are these: dose 5.0 µM.
The subject of experiment [16] is A549/TR. Kind of experiment: Reversal of taxol resistance in human A549/Taxol cells assessed as suppression of P-gp expression level at 5 uM incubated for 20 mins by multimode plate reader analysis. Type of experiment: functional, cell-based.
Experiment [17] concerns NCI-H460. Kind of experiment: Inhibition of DMBA-induced CYP1B1 overexpression in human NCI-H460 cells assessed as effect on MMP-9 level at 5 uM incubated for 24 hrs by densitometry analysis. The format is functional, cell-based.
Experiment [18] deals with NCI-H460. The experiment can be described thus: Inhibition of DMBA-induced CYP1B1 overexpression in human NCI-H460 cells assessed as increase in SRC level at 5 uM incubated for 24 hrs by densitometry analysis. Type of experiment: functional, cell-based.
In experiment [19] the target is Focal adhesion kinase 1 (Homo sapiens) (UniProt Q05397). The experiment can be described thus: Inhibition of FAK pathway in human A549/Taxol cells assessed as decrease in phosphorylated FAK level at 5 uM incubated for 24 hrs. The format is cell-based.
Experiment [20] has as its system A549. The experiment can be described thus: Inhibition of DMBA-induced CYP1B1 overexpression in human A549 cells assessed as increase in SRC level incubated for 24 hrs by densitometry analysis. The conditions noted are these: dose 5.0 µM. Type of experiment: functional, cell-based.
Experiment [21] has as its system A549/TR. Kind of experiment: Reversal of taxol resistance in human A549/Taxol cells assessed as increase in Rho123 accumulation at 5 uM incubated for 20 mins by multimode plate reader analysis. Type of experiment: functional, cell-based.
For experiment [22], the system named is NCI-H460. Kind of experiment: Upregulation of DMBA-induced CYP1B1 expression level in human NCI-H460 cells at 5 uM incubated for 24 hrs. The format is functional, cell-based.
Experiment [23] relates to A549. The experiment can be described thus: Inhibition of DMBA-induced CYP1B1 overexpression in human A549 cells assessed as decrease in E-cadherin level incubated for 24 hrs by densitometry analysis. The format is functional, cell-based. The conditions noted are these: dose 5.0 µM.
Experiment [24] concerns A549. The experiment can be described thus: Inhibition of DMBA-induced CYP1B1 overexpression in human A549 cells assessed as supression of FAK pathway at 5 uM incubated for 24 hrs by densitometry analysis. Type of experiment: functional, cell-based.
Experiment [25] deals with A549. Kind of experiment: Inhibition of DMBA-induced CYP1B1 overexpression in human A549 cells assessed as increase in Vimentin level incubated for 24 hrs by densitometry analysis. The format is functional, cell-based. Conditions: dose 5.0 µM.
The test system of experiment [26] is NCI-H460. Kind of experiment: Inhibition of DMBA-induced CYP1B1 overexpression in human NCI-H460 cells assessed as increase in SRC level incubated for 24 hrs by densitometry analysis. The conditions noted are these: dose 5.0 µM. Type of experiment: functional, cell-based.
In experiment [27] the test system is NCI-H460. Kind of experiment: Inhibition of DMBA-induced AKT overexpression in human taxol resistance NCI-H460 cells at 5 uM incubated for 24 hrs. The format is functional, cell-based.
Experiment [28] concerns NCI-H460. Kind of experiment: Inhibition of DMBA-induced AKT overexpression in human taxol resistance NCI-H460 cells incubated for 24 hrs. Type of experiment: functional, cell-based. Conditions: dose 5.0 µM.
The target in experiment [29] is Proto-oncogene tyrosine-protein kinase Src (Homo sapiens) (UniProt P12931). The experiment can be described thus: Inhibition of SRC pathway in human A549/Taxol cells assessed as decrease in phosphorylated FAK level at 5 uM incubated for 24 hrs. Type of experiment: cell-based.

Sequence of Proto-oncogene tyrosine-protein kinase Src (Homo sapiens) (P12931 2-536 limits assumed): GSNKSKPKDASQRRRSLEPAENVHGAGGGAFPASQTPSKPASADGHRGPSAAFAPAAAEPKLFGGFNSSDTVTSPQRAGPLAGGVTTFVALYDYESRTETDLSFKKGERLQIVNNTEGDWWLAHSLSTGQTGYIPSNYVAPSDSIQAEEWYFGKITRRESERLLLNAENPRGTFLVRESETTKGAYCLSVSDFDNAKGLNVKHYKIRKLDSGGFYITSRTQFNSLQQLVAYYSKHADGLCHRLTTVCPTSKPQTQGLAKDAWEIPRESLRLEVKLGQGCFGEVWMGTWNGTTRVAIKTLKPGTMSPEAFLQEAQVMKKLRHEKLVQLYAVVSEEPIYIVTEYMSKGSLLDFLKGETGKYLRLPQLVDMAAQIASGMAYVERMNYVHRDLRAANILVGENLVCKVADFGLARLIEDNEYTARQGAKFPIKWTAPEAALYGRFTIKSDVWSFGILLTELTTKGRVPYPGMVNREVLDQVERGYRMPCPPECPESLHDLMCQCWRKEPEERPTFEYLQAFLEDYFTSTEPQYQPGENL
Sequence of Focal adhesion kinase 1 (Homo sapiens) (Q05397 2-1052 limits assumed): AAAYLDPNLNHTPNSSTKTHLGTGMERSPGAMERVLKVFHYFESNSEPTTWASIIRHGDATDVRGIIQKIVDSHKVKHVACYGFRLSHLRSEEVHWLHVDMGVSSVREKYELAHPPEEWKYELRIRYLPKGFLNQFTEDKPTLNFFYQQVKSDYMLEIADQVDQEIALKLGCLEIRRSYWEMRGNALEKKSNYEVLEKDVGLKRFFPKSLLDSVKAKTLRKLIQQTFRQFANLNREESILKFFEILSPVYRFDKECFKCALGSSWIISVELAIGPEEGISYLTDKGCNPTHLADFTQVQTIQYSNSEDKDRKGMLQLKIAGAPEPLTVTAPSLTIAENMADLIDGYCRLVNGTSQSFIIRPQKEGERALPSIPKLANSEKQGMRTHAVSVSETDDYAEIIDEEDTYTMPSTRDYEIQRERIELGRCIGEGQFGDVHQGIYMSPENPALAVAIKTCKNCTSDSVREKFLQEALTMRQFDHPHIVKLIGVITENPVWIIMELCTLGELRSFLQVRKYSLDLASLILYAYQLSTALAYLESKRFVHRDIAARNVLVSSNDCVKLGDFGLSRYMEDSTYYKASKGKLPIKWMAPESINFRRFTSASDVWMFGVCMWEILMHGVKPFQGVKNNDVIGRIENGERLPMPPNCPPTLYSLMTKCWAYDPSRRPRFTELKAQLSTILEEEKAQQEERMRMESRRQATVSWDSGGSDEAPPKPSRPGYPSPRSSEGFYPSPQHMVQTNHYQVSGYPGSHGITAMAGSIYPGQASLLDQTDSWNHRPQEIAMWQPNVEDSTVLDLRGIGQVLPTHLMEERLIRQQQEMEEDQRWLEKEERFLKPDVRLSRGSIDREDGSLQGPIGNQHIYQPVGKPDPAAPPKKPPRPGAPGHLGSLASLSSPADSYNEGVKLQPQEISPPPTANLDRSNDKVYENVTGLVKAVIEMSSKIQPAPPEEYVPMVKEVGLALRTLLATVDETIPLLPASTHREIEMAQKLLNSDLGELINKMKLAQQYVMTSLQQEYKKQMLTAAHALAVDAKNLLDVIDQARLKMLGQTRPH

Take `COc1cc(Nc2nc(-c3nc(-c4ccccc4F)cs3)cs2)cc(OC)c1`: the concentration for half-maximal inhibition (IC50) at Cytochrome P450 1A1 came out at 347 nM. Moreover, the CI amounted to 0.47 in the experiment with A549/TR [1]; 0.66 in the experiment on A549/TR [2]; 0.4 in the experiment with A549/TR [3]; 0.71 with A549/TR [6]; 0.55 in the experiment with A549/TR [7]; 0.3 in the experiment on A549/TR [10]. Further, the CI in the experiment on A549/TR [12] was 0.2. Moreover, the outcome in the experiment with A549/TR [4] and in the experiment with A549/TR [9] was Active. Further, the inhibition result in the experiment with A549 [5] and with A549/TR [8] was “Dose-Dependent Effect” each time. In addition, the inhibition result (in the experiment on A549/Taxol; in experiment [11]) was “Active” throughout.
Regarding `COc1cc(/C=C/c2ccc(OC)cc2OC)cc(OC)c1`, the Activity entry in the experiment on A549 [13] was “Dose-Dependent Effect”. Also, the inhibition result with NCI-H460 [14], in the experiment with NCI-H460 [17] and in the experiment on NCI-H460 [18] was “inactive” each time. For the same molecule, the inhibition entry in the experiment on NCI-H460 [15], in the experiment with A549 [20], with A549 [23], with A549 [25], with NCI-H460 [26] and with NCI-H460 [28] was “Dose-Dependent Effect” each time. Further, the result in the experiment with A549/TR [16] and in the experiment with A549/TR [21] was Active. Further, the inhibition entry (in experiment [19]; in the experiment with A549 [24]; with NCI-H460 [27]; in experiment [29]) was “Active” each time. Further, the result with NCI-H460 [22] was inactive.
